Laboratory results published in ChEMBL document CHEMBL1240454, “1,3-Dioxolane-based ligands incorporating a lactam or imide moiety: structure-affinity/activity relationship at alpha1-adrenoceptor subtypes and at 5-HT1A receptors” (Eur J Med Chem, 2010).

Legend:
[1] = biological target: T1, 5-hydroxytryptamine receptor 1A (Homo sapiens) (UniProt P08908); experiment: Agonist activity at human cloned 5HT1A receptor expressed in human HeLa cells assessed as stimulation of [35S]GTPgammaS binding after 20 mins by liquid scintillation counting relative to maximal 5HT response; format: functional, cell-based
T1 sequence (whole entry): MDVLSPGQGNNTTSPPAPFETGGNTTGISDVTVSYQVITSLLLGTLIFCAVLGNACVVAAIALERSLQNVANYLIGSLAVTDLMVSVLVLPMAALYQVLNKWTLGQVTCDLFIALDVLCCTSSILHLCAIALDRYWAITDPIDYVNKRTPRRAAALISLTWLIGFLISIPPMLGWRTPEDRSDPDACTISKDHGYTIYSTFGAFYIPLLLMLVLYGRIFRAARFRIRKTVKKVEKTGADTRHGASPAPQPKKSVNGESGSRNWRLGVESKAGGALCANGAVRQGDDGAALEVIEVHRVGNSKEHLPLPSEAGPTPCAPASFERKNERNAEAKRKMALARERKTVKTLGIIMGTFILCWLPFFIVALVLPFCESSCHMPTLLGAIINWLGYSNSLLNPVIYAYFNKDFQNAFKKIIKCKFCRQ

[2] = biological target: T1, 5-hydroxytryptamine receptor 1A (Homo sapiens); experiment: Agonist activity at human cloned 5HT1A receptor expressed in human HeLa cells assessed as stimulation of [35S]GTPgammaS binding after 20 mins by liquid scintillation counting; format: functional, cell-based
[3] = biological target: T2, Alpha-1B adrenergic receptor (Rattus norvegicus) (UniProt P15823); experiment: Antagonist activity at adrenergic Alpha-1B receptor in Wistar rat spleen assessed as inhibition of […]-induced tissue contraction treated 30 mins before […] challenge; format: functional, tissue-based
T2 sequence (whole entry): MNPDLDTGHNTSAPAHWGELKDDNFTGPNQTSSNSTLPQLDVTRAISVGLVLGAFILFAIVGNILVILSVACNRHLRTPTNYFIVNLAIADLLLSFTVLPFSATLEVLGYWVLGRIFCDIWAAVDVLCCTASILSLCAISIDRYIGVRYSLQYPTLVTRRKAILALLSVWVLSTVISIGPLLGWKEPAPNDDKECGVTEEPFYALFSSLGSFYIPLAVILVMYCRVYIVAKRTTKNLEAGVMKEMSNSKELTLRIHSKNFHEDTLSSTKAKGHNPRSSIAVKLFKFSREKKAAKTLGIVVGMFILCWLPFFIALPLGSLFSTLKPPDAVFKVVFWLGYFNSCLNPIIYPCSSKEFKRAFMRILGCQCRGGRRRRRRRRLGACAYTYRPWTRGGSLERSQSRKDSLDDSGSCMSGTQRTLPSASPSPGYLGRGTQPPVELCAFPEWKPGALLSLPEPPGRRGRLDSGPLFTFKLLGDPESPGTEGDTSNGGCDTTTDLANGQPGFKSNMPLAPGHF

SMILES | Emax [1] [%] | pD2 [2] | pKb [3]
CCCN(CCC)C1CCc2cccc(O)c2C1 (stereo not given) | 26 | 9.27 | 
COc1ccccc1N1CCN(CCN2C(=O)CC3(CCCC3)CC2=O)CC1 | 100 | 7.83 | 7.48
